Results as given in ChEMBL document CHEMBL1158198, “Indole Alkaloids of Haplophyton crooksii 1” (J Nat Prod, 1996).

Target: Acetylcholinesterase (Electrophorus electricus, UniProt O42275)
Assay: Inhibition of electric eel AChE

Chain of Acetylcholinesterase (O42275 whole entry): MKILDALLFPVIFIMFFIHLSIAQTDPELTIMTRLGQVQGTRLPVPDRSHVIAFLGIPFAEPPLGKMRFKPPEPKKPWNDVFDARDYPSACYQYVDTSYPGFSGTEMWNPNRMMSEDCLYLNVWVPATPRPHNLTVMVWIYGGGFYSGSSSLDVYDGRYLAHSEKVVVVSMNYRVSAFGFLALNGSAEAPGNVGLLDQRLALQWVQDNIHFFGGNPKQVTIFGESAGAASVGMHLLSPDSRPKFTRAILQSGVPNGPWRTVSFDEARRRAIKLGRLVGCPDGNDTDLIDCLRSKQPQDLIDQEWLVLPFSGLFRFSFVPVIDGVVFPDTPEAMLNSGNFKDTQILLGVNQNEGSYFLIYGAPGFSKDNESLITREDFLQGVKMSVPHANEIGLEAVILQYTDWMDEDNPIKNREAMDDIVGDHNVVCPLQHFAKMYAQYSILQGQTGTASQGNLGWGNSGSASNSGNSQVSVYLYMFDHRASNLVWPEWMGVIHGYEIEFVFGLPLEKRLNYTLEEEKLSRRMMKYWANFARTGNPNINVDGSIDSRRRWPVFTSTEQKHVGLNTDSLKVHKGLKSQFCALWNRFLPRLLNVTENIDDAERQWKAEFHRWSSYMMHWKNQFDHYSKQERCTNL

Row | SMILES | IC50
1 | C/C=C1/CN2CC[C@]34c5cccc(OC)c5N[C@H]3C[C@H]1C[C@H]24 | 57 µM
2 | C/C=C1\CN2[C@H]3C[C@H]1C(C(=O)OC)[C@@H]2Cc1c3n(C)c2ccc(OC)cc12 (some centres not stated) | 135 µM
3 | C/C=C1/CN2CC[C@]34C(=C(C(=O)OC)[C@H]1C[C@H]23)Nc1ccccc14 [AKUAMMICINE] | 221 µM
4 | C/C=C1/CN2[C@H]3Cc4c([nH]c5ccccc45)[C@@H]2C[C@@H]1[C@]3(CO)C(=O)OC [AKUAMMIDINE] | 188 µM
5 | CCC(=O)N1c2c(ccc(OC)c2O)[C@]23CCN4CCC[C@@]5(CC[C@@H]12)CC(=O)O[C@@]453 [CIMICIDINE] | 197 µM
6 | CCC(=O)N1c2c(O)cccc2[C@]23CCN4CCC[C@@]5(CC[C@@H]12)CC(=O)O[C@@]453 [CIMICINE] | 241 µM
7 | CC[C@@H]1CCCN(CCc2c(C(C)=O)[nH]c3ccccc23)C1 [CROOKSIDINE] | 175 µM
8 | CCc1[nH]c2ccccc2c1CCN1CCCC(CC)C1 (configuration not stated) [DECARBOMETHOXYTETRAHYDROSECODINE] | 203 µM
9 | COc1c([C@@]23CCN(C)[C@]4(CCC(=O)N4c4c(O)cccc42)C3=O)cc2c(c1OC)N(C)[C@@H]1C=C[C@@]34CCCN5CC[C@@]21[C@]53OC(=O)C4 [HAPLOPHYTINE] | 225 µM
10 | C/C=C1/CN2CC[C@@]34c5ccccc5N(C)[C@H]5O[C@]3(O)[C@@H]2C[C@@H]1[C@]54C(=O)OC [LANCEOMAGINE] | 383 µM
11 | CC[C@H]1[C@@H]2CCN3CC[C@@]4(C(=C2C(=O)OC)Nc2ccccc24)[C@@H]13 [TUBOTAIWINE] | 108 µM
12 | COC(=O)[C@@H]1[C@H]2C[C@H]3c4[nH]c5ccccc5c4CCN3C[C@@H]2CC[C@@H]1O [YOHIMBINE] | 431 µM
